According to the Bradley open melting point set (2014):
Values joined by “and” are separate entries in the source; they are usually repeats but may differ in a detail not shown here. Equal values may be shown once.

Row | SMILES | melting point
1 | [2H]OC(=O)C([2H])([2H])[2H] [(~2~H_4_)Acetic acid] | 15.5 °C
2 | [2H]C([2H])([2H])[2H] [(~2~H_4_)Methane] | -183 °C
3 | [2H]OC([2H])([2H])C([2H])([2H])[2H] [(~2~H_5_)Ethan(~2~H)ol] | -114 °C
4 | [2H]OC([2H])([2H])C([2H])(O[2H])C([2H])([2H])O[2H] [(~2~H_5_)Propane-1,2,3-(~2~H_3_)triol] | 20 °C
5 | [2H]C([2H])([2H])C(=O)C([2H])([2H])[2H] [(~2~H_6_)Propan-2-one] | -93 °C
6 | [2H]C1([2H])OC([2H])([2H])C([2H])([2H])C1([2H])[2H] [(~2~H_8_)Tetrahydrofuran] | -106 °C
7 | [2H]c1c([2H])c([2H])c2c(c1[2H])c([2H])c([2H])c1c3c([2H])c([2H])c([2H])c([2H])c3c([2H])c([2H])c21 [(~2~H_12_)Chrysene] | 255 °C
8 | [2H]C([2H])([2H])C([2H])([2H])C([2H])([2H])C([2H])([2H])C([2H])([2H])C([2H])([2H])C([2H])([2H])C([2H])([2H])C([2H])([2H])[2H] [(~2~H_20_)Nonane] | -53 °C
9 | [2H]C([2H])([2H])C([2H])([2H])C([2H])([2H])C([2H])([2H])C([2H])([2H])C([2H])([2H])C([2H])([2H])C([2H])([2H])C([2H])([2H])C([2H])([2H])[2H] [(~2~H_22_)Decane] | -30 °C
10 | c1cc2c3c(cccc3c1)CC2 [Acenaphthene] | 95 °C
11 | CC(=O)Nc1nnc(S(N)(=O)=O)s1 [Acetazolamide] | 260 °C
12 | CC(=O)O [Acetic acid] | 16.7 °C
13 | CC(=O)c1ccc(S(=O)(=O)NC(=O)NC2CCCCC2)cc1 [Acetohexamide] | 189 °C
14 | CC(=O)Cl [Acetyl chloride] | -112 °C
15 | Cc1c(C)c(/C=CC(C)=CC=CC(/C)=CC(=O)O)c(C)cc1OC [Acitretin] | 229 °C
16 | N=c1nc(O)c2ncn(COCCO)c2[nH]1 [Acyclovir] | 255 °C
17 | O=C1[C@H]2C[C@@H]3C[C@@H](C[C@H]1C3)C2 [Adamantanone] | 270 °C
18 | Nc1ncnc2c1ncn2[C@@H]1O[C@H](COP(=O)(O)O)[C@@H](O)[C@H]1O [Adenosine monophosphate] | 186 °C
19 | C=CCOc1ccc(CC(=O)O)cc1Cl [Alclofenac] | 92 °C
20 | NCCCCCC(=O)O [Aminocaproic Acid] | 205 °C
21 | Cc1c(N(C)C)c(=O)n(-c2ccccc2)n1C [Aminopyrine] | 108 °C
22 | CC(C)(C#N)c1cc(Cn2cncn2)cc(C(C)(C)C#N)c1 [Anastrozole] | 130 °C
23 | Nc1ccccc1 [Aniline] | -6 °C
24 | COc1ccc(CCN2CCC(Nc3nc4ccccc4n3Cc3ccc(F)cc3)CC2)cc1 [Astemizole] | 149 °C
25 | O=C(O)CCCCCCCC(=O)O [Azelaic Acid] | 106 °C

Row | SMILES | melting point
26 | CC[C@H]1OC(=O)[C@H](C)[C@@H](O[C@H]2C[C@@](C)(OC)[C@@H](O)[C@H](C)O2)C(C)[C@@H](O[C@@H]2O[C@H](C)C[C@H](N(C)C)[C@H]2O)[C@](C)(O)C[C@@H](C)CN(C)[C@H](C)[C@@H](O)[C@]1(C)O (some centres not stated) [Azithromycin] | 114 °C
27 | O=C(O)\C=C(/C)C [B,B-dimethylacrylic acid] | 69.5 °C
28 | CC1=C(/C=C/C(C)=C/C=C/C(C)=C/C=C/C=C(C)/C=C/C=C(C)/C=C/C2=C(C)CCCC2(C)C)C(C)(C)CCC1 [B-carotene] | 183 °C (2×) and 180 °C
29 | CCC1(CC)C(=O)NC(=O)NC1=O [Barbital] | 190 °C
30 | O=C1CC(=O)NC(=O)N1 [Barbituric acid] | 248 °C
31 | C[C@H]1C[C@H]2[C@@H]3CCC4=CC(=O)C=C[C@]4(C)[C@@]3(Cl)[C@@H](O)C[C@]2(C)[C@@]1(O)C(=O)CO [Beclomethasone] | 118 °C
32 | O=S(=O)(Cl)c1ccccc1 [Benzenesulfonyl chloride] | 15 °C
33 | O=C(C(=O)c1ccccc1)c1ccccc1 [Benzil] [listing 1 of 2 here] | 95 °C
34 | O=C(C(=O)c1ccccc1)c1ccccc1 [Benzil] [listing 2 of 2 here] | 94.5 °C
35 | O=C(O)c1ccccc1 [Benzoic Acid] | 122 °C
36 | O=C(O)c1ccccc1 [Benzoic acid] | 122 °C
37 | CC(C)(Oc1ccc(CCNC(=O)c2ccc(Cl)cc2)cc1)C(=O)O [Bezafibrate] | 186 °C
38 | c1ccc(CCc2ccccc2)cc1 [Bibenzyl] | 52 °C
39 | BrC(Br)Br [Bromoform] | 9 °C
40 | CCCCNc1cc(C(=O)O)cc(S(N)(=O)=O)c1Oc1ccccc1 [Bumetanide] | 230 °C
41 | C=CCC1(CC(C)C)C(=O)NC(=O)NC1=O [Butalbital] | 138 °C
42 | CCCCN [Butan-1-amine] | -49 °C
43 | CC(O)C(C)O (configuration not stated) [Butane-2,3-diol] | 25 °C
44 | C=C(C)C(=O)OCCCC [Butyl methacrylate] | -50 °C
45 | CCCCN [Butylamine] | -49 °C
46 | CC(=O)OCC1=C(C(=O)O)N2C(=O)[C@@H](NC(=O)Cc3cccs3)[C@H]2SC1 [Cefalotin] | 160 °C
47 | ClC(Cl)Cl [Chloroform] | -63 °C
48 | c1ccc2c(c1)ccc1c3ccccc3ccc21 [Chrysene] [listing 1 of 2 here] | 255 °C
49 | c1ccc2c(c1)ccc1c3ccccc3ccc21 [Chrysene] [listing 2 of 2 here] | 253 °C
50 | Clc1cccc(Cl)c1N=C1NCCN1 [Clonidine] | 130 °C

Row | SMILES | melting point
51 | Clc1ccccc1C(c1ccccc1)(c1ccccc1)n1ccnc1 [Clotrimazole] | 148 °C
52 | CC(=O)C=C(C)[O][Co]([O]C(C)=CC(C)=O)[O]/C(C)=C\C(C)=O [Cobalt(3+) tris[(2Z)-4-oxopent-2-en-2-olate]] | 212 °C
53 | COc1cc2c(c(OC)c1OC)-c1ccc(OC)c(=O)cc1[C@@H](NC(C)=O)CC2 [Colchicine] | 156 °C
54 | N#CCC(=O)c1ccccc1 [Cyanoacetophenone] | 83 °C
55 | OC1CCCCC1 [Cyclohexanol] | 21 °C
56 | C1=CCCCC1 [Cyclohexene] | -104 °C
57 | C1=CC=CC=CC=C1 [Cycloocta-1,3,5,7-tetraene] | -27 °C
58 | C1=CCC=C1 [Cyclopenta-1,3-diene] | -97.2 °C
59 | O=C1CCCC1 [Cyclopentanone] | -51 °C
60 | Nc1ccn([C@@H]2O[C@H](CO)[C@@H](O)[C@@H]2O)c(=O)n1 [Cytarabine] | 212 °C
61 | OC[C@@H](O)[C@@H](O)[C@H](O)[C@H](O)CO [D-Mannitol] | 167 °C
62 | O=C[C@H](O)[C@H](O)[C@H](O)CO [D-Ribose] | 82 °C
63 | OC[C@@H](O)[C@H](O)[C@@H](O)CO [D-Xylitol] | 104 °C
64 | OC[C@H]1O[C@](O)(CO)[C@@H](O)[C@@H]1O [D-fructose] | 108 °C
65 | C[C@@H](O)[C@H](O)[C@H](O)[C@@H](O)C=O [D-fucose] | 145 °C
66 | OC[C@@H](O)[C@@H](O)[C@H](O)[C@@H](O)CO [D-sorbitol] | 99 °C
67 | CCCCCCCCCCO [Decan-1-ol] | 7 °C
68 | CCCCCCCCCC [Decane] | -30 °C and -29.7 °C
69 | O=C(O)c1ccc(-n2nc(-c3ccccc3O)nc2-c2ccccc2O)cc1 [Deferasirox] | 116 °C
70 | O=C(O)CCc1ccc(O)cc1 [Desaminotyrosine] | 130 °C
71 | NC(Cc1cc(I)c(Oc2cc(I)c(O)c(I)c2)c(I)c1)C(=O)O (configuration not stated) [Dextrothyroxine] | 236 °C
72 | CC(C)(C)[SiH](Cl)C(C)(C)C [Di-tert-butyl(chloro)silane] | 39 °C
73 | c1ccc2c(c1)oc1ccccc12 [Dibenzofuran] | 82 °C
74 | CCCCOC(=O)c1ccccc1C(=O)OCCCC [Dibutyl phthalate] | -35 °C
75 | O=C(O)Cc1ccccc1Nc1c(Cl)cccc1Cl [Diclofenac] | 157 °C

Row | SMILES | melting point
76 | C1=CC2C(C1)[C@@H]1C=C[C@H]2C1 (some centres not stated) [Dicyclopentadiene] | 32.5 °C
77 | O=c1nc[nH]c2c1ncn2[C@H]1CC[C@@H](CO)O1 [Didanosine] | 162 °C
78 | CCOC(=O)/C=C\C(=O)OCC [Diethyl (2Z)-but-2-enedioate] | -10 °C
79 | CCOC(=O)c1ccccc1C(=O)OCC [Diethyl phthalate] | -3 °C
80 | O=C(O)c1cc(-c2ccc(F)cc2F)ccc1O [Diflunisal] | 216 °C
81 | COc1ccc([C@@H]2Sc3ccccc3N(CCN(C)C)C(=O)[C@@H]2OC(C)=O)cc1 [Diltiazem] | 231 °C
82 | COCOC [Dimethoxymethane] | -105 °C
83 | COC(=O)/C=C/C(=O)OC [Dimethyl (2E)-but-2-enedioate] | 104 °C
84 | COC(=O)c1ccccc1C(=O)OC [Dimethyl phthalate] | 2 °C
85 | CS(C)=O [Dimethyl sulfoxide] | 18.4 °C and 18.5 °C
86 | c1ccc(Nc2ccccc2)cc1 [Diphenylamine] | 53 °C
87 | C=CCCCCCCCCCC [Dodec-1-ene] | -35 °C
88 | CCCCCCCCCCCCN [Dodecan-1-amine] | 29 °C
89 | CCCCCCCCCCCC [Dodecane] | -9.6 °C
90 | O=c1[nH]c2ccccc2n1CCCN1CCC(n2c(=O)[nH]c3cc(Cl)ccc32)CC1 [Domperidone] | 242 °C
91 | COc1cccc2c1C(=O)c1c(O)c3c(c(O)c1C2=O)C[C@@](O)(C(=O)CO)C[C@@H]3O[C@H]1C[C@H](N)[C@H](O)[C@H](C)O1 [Doxorubicin] | 204 °C
92 | CC[C@H]1OC(=O)[C@H](C)[C@@H](O[C@H]2C[C@@](C)(OC)[C@@H](O)[C@H](C)O2)[C@H](C)[C@@H](O[C@@H]2O[C@H](C)C[C@H](N(C)C)[C@H]2O)[C@](C)(O)C[C@@H](C)C(=O)[C@H](C)[C@@H](O)[C@]1(C)O [Erythromycin] | 191 °C
93 | C[C@]12CC[C@@H]3c4ccc(O)cc4CC[C@H]3[C@@H]1CC[C@@H]2O [Estradiol] | 176 °C
94 | C[C@]12CC[C@@H]3c4ccc(O)cc4CC[C@H]3[C@@H]1C[C@@H](O)[C@@H]2O [Estriol] | 282 °C
95 | O=C(Cl)C(=O)Cl [Ethanedioyl dichloride] | -9 °C
96 | CCc1cc(C(N)=S)ccn1 [Ethionamide] | 163 °C
97 | C=COCC [Ethoxyethene] | -115 °C
